{
  "source": "patent US20080193530A1",
  "about": "(priority 2007, published 2008)",
  "test_system": "glycosylated hemoglobin level (HbA1C)",
  "assay": "Clinical study of ranolazine (IV dose, then oral sustained release) vs placebo in patients having coronary disease: HbA1C",
  "type": "in vivo, human",
  "text": "Baseline is in-hospital visit prior to hospitalization.",
  "key": {"[1]": {"conditions": "Diabetes at enrollment, ranolazine group (n = 1098), Month 16"}, "[2]": {"conditions": "No Diabetes at enrollment, ranolazine group (n = 2170), Final Visit"}, "[3]": {"conditions": "No Diabetes at enrollment, ranolazine group (n = 2170), Month 4"}, "[4]": {"conditions": "No Diabetes at enrollment, ranolazine group (n = 2170), Month 8"}, "[5]": {"conditions": "No Diabetes at enrollment, ranolazine group (n = 2170), Month 16"}},
  "note": "“Also recorded” adds a separate entry of the source.",
  "data": [
    {"smiles": "COc1ccccc1OCC(O)CN1CCN(CC(=O)Nc2c(C)cccc2C)CC1", "note": "(racemic) [Ranolazine, (±)-N-(2,6-dimethylphenyl)-4-[2-hydroxy-3-(2-methoxyphenoxy)-propyl]-1-piperazineacetamide]", "values": [
      {"measurement": "Proportion of patients with HbA1c ≧7% by diabetes at enrollment", "setting": "Diabetes at enrollment, ranolazine group (n = 1098), Baseline", "result": 57, "unit": "%"},
      {"measurement": "Proportion of patients with HbA1c ≧7% by diabetes at enrollment", "setting": "Diabetes at enrollment, ranolazine group (n = 1098), Final Visit", "result": 42, "unit": "%"},
      {"measurement": "Proportion of patients with HbA1c ≧7% by diabetes at enrollment", "setting": "Diabetes at enrollment, ranolazine group (n = 1098), Month 4", "result": 41, "unit": "%"},
      {"measurement": "Proportion of patients with HbA1c ≧7% by diabetes at enrollment", "setting": "Diabetes at enrollment, ranolazine group (n = 1098), Month 8", "result": 44, "unit": "%"},
      {"measurement": "Number of patients with HbA1c ≧7% by diabetes at enrollment", "setting": "[1]", "result": 63},
      {"measurement": "Proportion of patients with HbA1c ≧7% by diabetes at enrollment", "setting": "[1]", "result": 48, "unit": "%"},
      {"measurement": "Proportion of patients with HbA1c ≧7% by diabetes at enrollment", "setting": "No Diabetes at enrollment, ranolazine group (n = 2170), Baseline", "result": 6, "unit": "%"},
      {"measurement": "Number of patients with HbA1c ≧7% by diabetes at enrollment", "setting": "[2]", "result": 92},
      {"measurement": "Proportion of patients with HbA1c ≧7% by diabetes at enrollment", "setting": "[2]", "result": 6, "unit": "%"},
      {"measurement": "Number of patients with HbA1c ≧7% by diabetes at enrollment", "setting": "[3]", "result": 78},
      {"measurement": "Proportion of patients with HbA1c ≧7% by diabetes at enrollment", "setting": "[3]", "result": 5, "unit": "%"},
      {"measurement": "Number of patients with HbA1c ≧7% by diabetes at enrollment", "setting": "[4]", "result": 72},
      {"measurement": "Proportion of patients with HbA1c ≧7% by diabetes at enrollment", "setting": "[4]", "result": 6, "unit": "%"},
      {"measurement": "Number of patients with HbA1c ≧7% by diabetes at enrollment", "setting": "[5]", "result": 21},
      {"measurement": "Proportion of patients with HbA1c ≧7% by diabetes at enrollment", "setting": "[5]", "result": 7, "unit": "%"},
      {"measurement": "Effect on serum HbA1c levels (FIGS. 1 and 2)", "setting": "all patients treated", "result": "HbA1c lowering effect on all patients treated; also recorded: significantly lowers serum HbA1C levels"},
      {"measurement": "Number of patients with HbA1C ≧7%", "setting": "all patients, ranolazine group (n = 3268), Month 16", "result": 84},
      {"measurement": "Effect on HbA1c levels (FIG. 2)", "setting": "diabetic patients treated with ranolazine", "result": "reduction in the amount of HbA1C levels"},
      {"measurement": "Effect on HbA1c levels (FIG. 2)", "setting": "non-diabetic patients treated with ranolazine", "result": "reduction in the amount of HbA1C levels"}
    ]}
  ]
}
